Measured values reported in patent US9789082B2, “Somatostatin receptor subtype 4 (SSTR4) agonists” (Centrexion Therapeutics Corporation, priority 2013, dated 2017).

target: human Somatostatin 4 receptor (SSTR4) (Homo sapiens (Human), UniProt P31391); test: cAMP assay with human somatostatin 4 receptor (hSSTR4 expressing H4 cells); assay type: cell-based; conditions: cAMP assay, read-out: SSTR4 agonism EC50
Procedure: Camp Assay Method Description for cAMP Assay with Human Somatostatin 4 Receptor
The activation of the SSTR4 receptor (Gi coupled) causes an inhibition of intracellular cAMP after stimulation with Forskolin, which can be quantifiable by use of a suitable assay Kit and an adequate plate reader. This technique is used to characterize pharmacological effects of the SSTR4 receptor agonists by use of hSSTR4 expressing H4 cells.
Compounds are dissolved and diluted in DMSO. The final test solution contains 1% DMSO. […] Cells are centrifuged and suspended in assay buffer (incl. 1:100 diluted Alexa antibody).
For the assay 5 μl of a cell suspension (approximately 5000 cells/well)—incl. Alexa antibody (diluted 1:100) are added into a 384 well MTP microtitre plate excepting one row or column (depending on the plate layout), which is reserved for the standard curve. Then 2 μl of compound sample is added as concentration response curve (e.g. 1e-5 M to 6e-10 M), usually in triplicates. Each assay contains incubations with vehicle controls instead of compound as controls for non-inhibited cAMP generation (100% CTL; ‘high values’) and incubations with 1 μM Somatosatin as controls for full inhibition and background (0% CTL; […]). […] Then the plates are shaken briefly and incubated for 60 min at room temperature. After 60 min 10 μl of the detection mix is added into all wells followed by an additional incubation period of 1 h. The plates are read in a suitable plate reader.
From this ratio, cAMP concentrations are calculated from standard curve and the EC50 is estimated by least square curve fit program.
The EC50 values were obtained with the aid of the above described cAMP ASSAY.

Chain of human Somatostatin 4 receptor (SSTR4) (P31391 whole entry): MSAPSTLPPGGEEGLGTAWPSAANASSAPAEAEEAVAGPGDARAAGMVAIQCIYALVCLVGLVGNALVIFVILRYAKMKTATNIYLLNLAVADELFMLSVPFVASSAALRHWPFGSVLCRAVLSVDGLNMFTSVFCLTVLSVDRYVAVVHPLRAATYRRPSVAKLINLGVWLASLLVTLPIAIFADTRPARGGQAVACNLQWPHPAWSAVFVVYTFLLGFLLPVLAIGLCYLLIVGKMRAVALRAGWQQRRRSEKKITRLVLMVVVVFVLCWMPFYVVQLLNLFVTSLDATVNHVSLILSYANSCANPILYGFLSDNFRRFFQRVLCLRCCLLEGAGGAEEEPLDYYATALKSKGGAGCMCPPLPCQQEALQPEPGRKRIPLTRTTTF

SMILES | EC50 [nM]
CC(NC(=O)[C@H]1[C@@H]2CNC[C@@H]21)c1nn(C)c2ccccc12 (single isomer, unassigned) [Example 112] | 119
CC(NC(=O)[C@H]1[C@@H]2CNC[C@@H]21)c1nn(C)c2c(Cl)cccc12 (single isomer, unassigned) [Example 115] | 21.3
Cc1cccc2c(C(C)NC(=O)[C@H]3[C@@H]4CNC[C@@H]43)nn(C)c12 (single isomer, unassigned) [Example 118] | 39.2
Cc1nc(C(C)NC(=O)[C@H]2[C@@H]3CNC[C@@H]32)c2ccccc2n1 (single isomer, unassigned) [Example 163] | 338
Cc1nc(C(C)NC(=O)[C@H]2[C@@H]3CNC[C@@H]32)c2ccccc2n1 (single isomer, unassigned) [Example 164] | 6660
Cc1nc(C(C)NC(=O)[C@H]2[C@@H]3CNC[C@@H]32)c2cccc(C)c2n1 (single isomer, unassigned) [Example 165] | 88.8
Cc1nc(C(C)NC(=O)[C@H]2[C@@H]3CNC[C@@H]32)c2cccc(C)c2n1 (single isomer, unassigned) [Example 166] | 1400
CC(C)(NC(=O)[C@H]1[C@@H]2CNC[C@@H]21)C1COc2ccccc21 (single isomer, unassigned) [Example 174] | 100
CC(C)(NC(=O)[C@H]1[C@@H]2CNC[C@@H]21)C1COc2ccccc21 (single isomer, unassigned) [Example 175] | 1000
CC(C)(NC(=O)[C@H]1[C@@H]2CNC[C@@H]21)C1CCOc2ccccc21 (single isomer, unassigned) [Example 179] | 10.3
CC(C)(NC(=O)[C@H]1[C@@H]2CNC[C@@H]21)C1CCOc2ccccc21 (single isomer, unassigned) [Example 180] | 400
Cc1cc(I)ccc1OCC1(NC(=O)[C@H]2[C@@H]3CNC[C@@H]32)CC1 [Example 1] | 238
CC(C)(NC(=O)[C@H]1[C@@H]2CNC[C@@H]21)c1ccccc1 [Example 3] | 179
CC(C)(CCc1ccccc1)NC(=O)[C@H]1[C@@H]2CNC[C@@H]21 [Example 4] | 315
CC(C)(Cc1cccc2ccccc12)NC(=O)[C@H]1[C@@H]2CNC[C@@H]21 [Example 5] | 26.6
Cc1ccccc1CC(C)(C)NC(=O)[C@H]1[C@@H]2CNC[C@@H]21 [Example 6] | 59.6
CC(C)(NC(=O)[C@H]1[C@@H]2CNC[C@@H]21)C1CCCCC1 [Example 7] | 435
O=C(NC1(c2ccccc2)CCCCC1)[C@H]1[C@@H]2CNC[C@@H]21 [Example 9] | 536
Cc1cc(Br)ccc1OCC(C)(C)NC(=O)[C@H]1[C@@H]2CNC[C@@H]21 [Example 14] | 7.2
Cc1cc(C(F)(F)F)ccc1OCC(C)(C)NC(=O)[C@H]1[C@@H]2CNC[C@@H]21 [Example 19] | 141
CC(C)(NC(=O)[C@H]1[C@@H]2CNC[C@@H]21)c1cc2ccccc2cn1 [Example 26] | 46.5
Cc1csc(C(C)(C)NC(=O)[C@H]2[C@@H]3CNC[C@@H]32)n1 [Example 27] | 285
CC(C)(CCc1ncccc1C(F)(F)F)NC(=O)[C@H]1[C@@H]2CNC[C@@H]21 [Example 29] | 60.4
Cc1cccnc1CCC(C)(C)NC(=O)[C@H]1[C@@H]2CNC[C@@H]21 [Example 30] | 202
CC(C)(NC(=O)[C@H]1[C@@H]2CNC[C@@H]21)c1ccc2ccccc2n1 [Example 34] | 41.1
Cn1nc(C(C)(C)NC(=O)[C@H]2[C@@H]3CNC[C@@H]32)c2ncccc21 [Example 35] | 376
CC(C)(COc1ccncc1C(F)(F)F)NC(=O)[C@H]1[C@@H]2CNC[C@@H]21 [Example 36] | 21.8
Cc1nccnc1OCC(C)(C)NC(=O)[C@H]1[C@@H]2CNC[C@@H]21 [Example 37] | 162
